Molecular target: T1, human type 1 glycine transporter (GlyT1) (Homo sapiens, UniProt P48067)
T1 construct: T98G cells (glioma cells) expressing human type 1 glycine transporter (GlyT1) were used
T1 sequence (P48067 1-706): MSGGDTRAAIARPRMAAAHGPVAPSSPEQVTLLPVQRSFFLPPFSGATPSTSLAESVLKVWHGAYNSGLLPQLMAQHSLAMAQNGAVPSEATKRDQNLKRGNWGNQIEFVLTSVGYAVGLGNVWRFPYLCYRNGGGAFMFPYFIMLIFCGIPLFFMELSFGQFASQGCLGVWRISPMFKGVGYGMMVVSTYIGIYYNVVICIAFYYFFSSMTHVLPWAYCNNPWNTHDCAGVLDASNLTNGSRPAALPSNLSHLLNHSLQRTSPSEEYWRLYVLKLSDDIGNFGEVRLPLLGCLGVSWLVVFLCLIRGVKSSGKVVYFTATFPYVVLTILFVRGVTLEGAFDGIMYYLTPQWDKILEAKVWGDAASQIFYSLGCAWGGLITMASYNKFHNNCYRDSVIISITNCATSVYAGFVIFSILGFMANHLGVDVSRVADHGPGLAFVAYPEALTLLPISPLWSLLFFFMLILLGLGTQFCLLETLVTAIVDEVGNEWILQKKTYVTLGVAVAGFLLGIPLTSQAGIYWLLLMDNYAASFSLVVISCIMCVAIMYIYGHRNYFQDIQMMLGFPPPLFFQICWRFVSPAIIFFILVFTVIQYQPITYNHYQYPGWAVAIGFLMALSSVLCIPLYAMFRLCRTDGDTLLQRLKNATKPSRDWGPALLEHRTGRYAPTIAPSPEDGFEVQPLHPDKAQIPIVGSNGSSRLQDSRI
Experiment: Glycine uptake inhibition experiment ([3H]glycine uptake)
Type: cell-based
Conditions: GlyT1
Outline: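 T98G glioma cells expressing human GlyT1 were pretreated 10 min with compound in HEPES buffer pH 7.4 (0.2% BSA), then incubated with compound plus 250 nM final [3H]glycine for 15 min at room temperature. Intracellular radioactivity was counted after NaOH lysis; 10 μM ALX5407 defined non-specific uptake. IC50 came from 10^−9–10^−5 M curves.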

Compound | IC50 [nM]
O=C(NC(c1cccc(-c2cnccn2)c1)C1(O)CCC(F)(F)CC1)c1nccc(C(F)(F)F)c1Cl (stereo not drawn) [Compound 159, 3-chloro-N-{(4,4-difluoro-1-hydroxycyclohexyl)[3-(pyrazin-2-yl)phenyl]methyl}-4-(trifluoromethyl)pyridine-2-carboxamide] | 320
O=C(NC(c1cccc(Cl)c1)C1(O)CCCCC1)c1nccc(C(F)(F)F)c1Cl (single isomer, unassigned) [Compound 229, 3-chloro-N-[(3-chlorophenyl)(1-hydroxycyclohexyl)methyl]-4-(trifluoromethyl)pyridine-2-carboxamide] | 28
O=C(NC(c1cccc(-c2cccnc2)c1)C1(O)CCCC1)c1cccc(C(F)(F)F)c1Cl (stereo not drawn) [Compound 3, 2-chloro-N-{(1-hydroxycyclopentyl)[3-(pyridin-3-yl)phenyl]methyl}-3-(trifluoromethyl)benzamide] | 360
O=C(NC(c1cccc(Cl)c1)C1(O)CCCCC1)c1nccc(C(F)(F)F)c1Cl (stereo not drawn) [Compound 212, 3-chloro-N-[(3-chlorophenyl)(1-hydroxycyclohexyl)methyl]-4-(trifluoromethyl)pyridine-2-carboxamide] | 84
CCn1cc(-c2cccc(C(NC(=O)c3cccc(Cl)c3Cl)C3(O)CCC(F)(F)CC3)c2)cn1 (stereo not drawn) [Compound 119, 2,3-dichloro-N-{(4,4-difluoro-1-hydroxycyclohexyl)[3-(1-ethyl-1H-pyrazol-4-yl)phenyl]methyl}benzamide] | 470
CCn1cc(-c2cccc(C(NC(=O)c3ccc(C(F)(F)F)cc3C)C3(O)CCC(F)(F)CC3)c2)cn1 (stereo not drawn) [Compound 184, N-{(4,4-difluoro-1-hydroxycyclohexyl)[3-(1-ethyl-1H-pyrazol-4-yl)phenyl]methyl}2-methyl-4-(trifluoromethyl)benzamide] | 860
O=C(NC(c1ccccc1Cl)C1(O)CCC(F)(F)CC1)c1nccc(C(F)(F)F)c1Cl (single isomer, unassigned) [Compound 156, 3-chloro-N-[(2-chlorophenyl)(4,4-difluoro-1-hydroxycyclohexyl)methyl]-4-(trifluoromethyl)pyridine-2-carboxamide] | 1800
O=C(NC(c1cc(Cl)cc(Cl)c1)C1(O)CCCC1)c1nccc(C(F)(F)F)c1Cl (single isomer, unassigned) [Compound 115, 3-chloro-N-[(3,5-dichlorophenyl)(1-hydroxycyclopentyl)methyl]-4-(trifluoromethyl)pyridine-2-carboxamide] | 59
O=C(NC(c1ccccc1Cl)C1(O)CCC(F)(F)CC1)c1ccnc(C(F)(F)F)c1Cl (single isomer, unassigned) [Compound 155, 3-chloro-N-[(2-chlorophenyl)(4,4-difluoro-1-hydroxycyclohexyl)methyl]-2-(trifluoromethyl)pyridine-4-carboxamide] | 170
COC(=O)c1cccc(C(NC(=O)c2nccc(C(F)(F)F)c2Cl)C2(O)CCCC2)c1 (stereo not drawn) [Compound 98, methyl 3-[({[3-chloro-4-(trifluoromethyl)pyridin-2-yl]carbonyl}amino)(1-hydroxycyclopentyl)methyl]benzoate] | 590
O=C(NC(c1ccc(F)c(Cl)c1)[C@]1(O)CC[C@@H](F)CC1)c1nccc(C(F)(F)F)c1Cl (single isomer, unassigned) [Compound 228, 3-chloro-N-[(3-chloro-4-fluorophenyl)(cis-4-fluoro-1-hydroxycyclohexyl)methyl]-4-(trifluoromethyl)pyridine-2-carboxamide] | 4200
O=C(NC(c1ccc(F)cc1)C1(O)CCCC1)c1nccc(C(F)(F)F)c1Cl (single isomer, unassigned) [Compound 58, 3-chloro-N-[(4-fluorophenyl)(1-hydroxycyclopentyl)methyl]-4-(trifluoromethyl)pyridine-2-carboxamide] | 760
O=C(NC(c1cc(Cl)cc(Cl)c1)C1(O)CCCC1)c1nccc(C(F)(F)F)c1Cl (stereo not drawn) [Compound 111, 3-chloro-N-[(3,5-dichlorophenyl)(1-hydroxycyclopentyl)methyl]-4-(trifluoromethyl)pyridine-2-carboxamide] | 220
CCn1cc(-c2cccc(C(NC(=O)c3ccc(Cl)c(Cl)c3)C3(O)CCC(F)(F)CC3)c2)cn1 (stereo not drawn) [Compound 175, 3,4-dichloro-N-{(4,4-difluoro-1-hydroxycyclohexyl)[3-(1-ethyl-1H-pyrazol-4-yl)phenyl]methyl}benzamide] | 4000
O=C(N[C@H](c1cccc(Br)c1)[C@]1(O)CC[C@H](F)CC1)c1nccc(C(F)(F)F)c1Cl [Compound 101, N-[(R)-(3-bromophenyl)(trans-4-fluoro-1-hydroxycyclohexyl)methyl]-3-hcloro-4-(trifluoromethyl)pyridine-2-carboxamide] | 1500
O=C(N[C@@H](c1cccc(Br)c1)C1(O)CCCC1)c1nccc(C(F)(F)F)c1Cl [Compound 33, N-[(S)-(3-bromophenyl)(1-hydroxycyclopentyl)methyl]-3-chloro-4-(trifluoromethyl)pyridine-2-carboxamide] | 82
CCn1cc(-c2cccc(C(NC(=O)c3cc(Cl)ccc3Cl)C3(O)CCC(F)(F)CC3)c2)cn1 (stereo not drawn) [Compound 127, 2,5-dichloro-N-{(4,4-difluoro-1-hydroxycyclohexyl)[3-(1-ethyl-1H-pyrazol-4-yl)phenyl]methyl}benzamide] | 660
COc1ccccc1C(NC(=O)c1nccc(C(F)(F)F)c1Cl)C1(O)CCCC1 (stereo not drawn) [Compound 50, 3-chloro-N-[(1-hydroxycyclopentyl)(2-methoxyphenyl)methyl]-4-(trifluoromethyl)pyridine-2-carboxamide] | 540

Results, then the molecule that gave them:

IC50 [nM] | Compound
1100 | O=C(NC(c1cccnc1Cl)[C@]1(O)CC[C@@H](F)CC1)c1nccc2ccccc12 (single isomer, unassigned) [Compound 326, N-[(2-chloropyridin-3-yl)(cis-4-fluoro-1-hydroxycyclohexyl)methyl]isoquinoline-1-carboxamide]
900 | O=C(NC(c1cccc(F)c1Cl)[C@]1(O)CC[C@@H](F)CC1)c1cccc(Cl)c1Cl (single isomer, unassigned) [Compound 248, 2,3-dichloro-N-[(2-chloro-3-fluorophenyl)(cis-4-fluoro-1-hydroxycyclohexyl)methyl]benzamide]
1600 | O=C(NC(c1cccc(F)c1Cl)[C@]1(O)CC[C@@H](F)CC1)c1ccccc1C(F)(F)F (single isomer, unassigned) [Compound 276, N-[(2-chloro-3-fluorophenyl)(cis-4-fluoro-1-hydroxycyclohexyl)methyl]-2-(trifluoromethyl)benzamide]
740 | CN(C(=O)c1nccc(C(F)(F)F)c1Cl)C(c1cccc(F)c1Cl)[C@]1(O)CC[C@@H](F)CC1 (single isomer, unassigned) [Compound 382, 3-chloro-N-[(2-chloro-3-fluorophenyl)(cis-4-fluoro-1-hydroxycyclohexyl)methyl]-N-methyl-4-(trifluoromethyl)pyridine-2-carboxamide]
1100 | Cc1ccc(-n2nccn2)c(C(=O)NC(c2cccc(F)c2Cl)[C@]2(O)CC[C@@H](F)CC2)n1 (single isomer, unassigned) [Compound 283, N-[(2-chloro-3-fluorophenyl)(cis-4-fluoro-1-hydroxycyclohexyl)methyl]-6-methyl-3-(2H-1,2,3-triazol-2-yl)pyridine-2-carboxamide]
2000 | O=C(NC(c1cccc(F)c1Cl)[C@]1(O)CC[C@@H](F)CC1)c1ccc(Cl)cc1-n1nccn1 (single isomer, unassigned) [Compound 285, 4-chloro-N-[(2-chloro-3-fluorophenyl)(cis-4-fluoro-1-hydroxycyclohexyl)methyl]-2-(2H-1,2,3-triazol-2-yl)benzamide]
990 | Cc1noc2nc(C3CC3)cc(C(=O)NC(c3cccc(F)c3Cl)[C@]3(O)CC[C@@H](F)CC3)c12 (single isomer, unassigned) [Compound 263, N-[(2-chloro-3-fluorophenyl)(cis-4-fluoro-1-hydroxycyclohexyl)methyl]-6-cyclopropyl-3-methyl[1,2]oxazolo[5,4-b]pyridine-4-carboxamide]
2100 | O=C(NC(c1cccc(F)c1Cl)[C@]1(O)CC[C@@H](F)CC1)c1cc(F)ccc1Cl (single isomer, unassigned) [Compound 295, 2-chloro-N-[(2-chloro-3-fluorophenyl)(cis-4-fluoro-1-hydroxycyclohexyl)methyl]-5-fluorobenzamide]
3400 | O=C(NC(c1cccc(F)c1Cl)[C@]1(O)CC[C@@H](F)CC1)c1ccccc1OC(F)(F)F (single isomer, unassigned) [Compound 282, N-[(2-chloro-3-flurophenyl)(cis-4-fluoro-1-hydroxycyclohexyl)methyl]-2-(trifluoromethoxy)benzamide]

Reference: US20160130278A1 (TAISHO PHARMACEUTICAL CO., LTD, priority 2013, published 2016)
